Here are results for nine molecules from patent US7041698B2, “Hepatitis C virus inhibitors” (Bristol-Myers Squibb Company, priority 2002, dated 2006).

Assay [1] deals with T1, HCV NS3/4A protease complex (UniProt P27958, C1454S/C1711G, species not given).
T1 construct: fused on or other part: Three-lysine solubilising tail at the C-terminus of NS4A
As to the kind of experiment: Recombinant HCV NS3/4A protease complex FRET peptide assay (strain not stated). Format: biochemical. The conditions noted are these: HCV NS3/4A protease enzyme assay, read-out: IC50 range.

In assay [2] the test system is HCV replicon in Huh7 cells. In words: HCV replicon cell-based assay. As to conditions: Hepatitis C virus, Huh-7, 96 h, HCV replicon, 4 days, read-out: EC50 range. Set-up: species or system HCV strain 1B. In outline:
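Huh7 cells carrying a genotype 1b subgenomic replicon (NS3-NS5B, neo) treated 4 days at 37° C with compound (0.5% DMSO final). NS3 protease activity read in lysates with 10 μM FRET peptide (340/490 nm, kinetic), giving EC50. Confirmed by Taqman qRT-PCR of HCV RNA and a Renilla luciferase replicon.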
A general note: Replicon systems follow genome replication, usually without infectious particles.

pEC50, pIC50: −log10 of the molar value. Bounds are passed on as bounds.

A word on the pIC50: it is the IC50 on a negative log10 scale, so that one unit is a factor of ten. A word on the pEC50: it is the negative decadic logarithm of the EC50, by convention in mol/L. As to `C=CC1C[C@]1(NC(=O)[C@@H]1C[C@@H](OC(=O)Nc2ccccc2N2CCOCC2)CN1C(=O)[C@@H](NC(=O)OC(C)(C)C)C(C)(C)C)C(=O)NS(=O)(=O)C1CC1` (stereo partly drawn) [Compound 82, BocNH-P3(t-BuGly)-P2(Hyp(O—CO(NH-2-(morpholin-4-yl-phenyl))))-P1(1R,2S VinylAcca)—CONHSO2Cyclopropane], in assay [1], the negative logarithm of the IC50 (pIC50) was greater than 7.00. For the same molecule, the negative logarithm of the EC50 (pEC50) in assay [2] is 6.00 to 7.00.
Regarding `C=CC1C[C@]1(NC(=O)[C@@H]1C[C@@H](OC(=O)Nc2cc(C)ccc2-n2cccc2)CN1C(=O)[C@@H](NC(=O)OC(C)(C)C)C(C)(C)C)C(=O)NS(=O)(=O)C1CC1` (stereo partly drawn) [Compound 83, BocNH-P3(t-BuGly)-P2(Hyp(O—CO(NH—(5-Methyl-2-pyrrol-1-yl-phenyl))))-P1(1R,2S VinylAcca)—CONHSO2Cyclopropane], the negative-log IC50 (pIC50) in assay [1] was greater than 7.00. Besides, the pEC50 in assay [2] is greater than 7.00.
For the molecule `C=CC1C[C@]1(NC(=O)[C@@H]1C[C@@H](OC(=O)Nc2cc(C(F)(F)F)ccc2N2CCCC2)CN1C(=O)[C@@H](NC(=O)OC(C)(C)C)C(C)(C)C)C(=O)NS(=O)(=O)C1CC1` (stereo partly drawn) [Compound 84, BocNH-P3(t-BuGly)-P2(Hyp(O—CO(NH—(2-Pyrrolidin-1-yl-5-trifluoromethyl-phenyl))))-P1(1R,2S VinylAcca)—CONHSO2Cyclopropane], the negative-log IC50 (pIC50) in assay [1] is greater than 7.00. The negative-log EC50 (pEC50) in assay [2] was 6.00 to 7.00.
Take `C=CC1C[C@]1(NC(=O)[C@@H]1C[C@@H](OC(=O)Nc2cc(C(F)(F)F)ccc2-n2cccc2)CN1C(=O)[C@@H](NC(=O)OC(C)(C)C)C(C)(C)C)C(=O)NS(=O)(=O)C1CC1` (stereo partly drawn) [Compound 85]: the negative logarithm of the IC50 (pIC50) in assay [1] was greater than 7.00. Further, in assay [2], the pEC50 was 6.00 to 7.00.
The like results for `C=CC1C[C@]1(NC(=O)[C@@H]1C[C@@H](OC(=O)Nc2ccccc2-n2cccc2)CN1C(=O)[C@@H](NC(=O)OC(C)(C)C)C(C)(C)C)C(=O)NS(=O)(=O)C1CC1` (stereo partly drawn) [Compound 86, BocNH-P3(t-BuGly)-P2(Hyp(O—CO(NH—(2-pyrrol-1-yl-phenyl))))-P1(1R,2S VinylAcca)—CONHSO2Cyclopropane] were, in that order, greater than 7.00 and 6.00 to 7.00.
On the same counts, the results for `C=CC1C[C@]1(NC(=O)[C@@H]1C[C@@H](OC(=O)Nc2ccccc2-n2nc3cc(OC)c(OC)cc3n2)CN1C(=O)[C@@H](NC(=O)OC(C)(C)C)C(C)(C)C)C(=O)NS(=O)(=O)C1CC1` (stereo partly drawn) [Compound 87, BocNH-P3(t-BuGly)-P2(Hyp(O—CO(NH—(2-(5,6-Dimethoxy-benzotriazol-2-yl)-phenyl))))-P1(1R,2S VinylAcca)—CONHSO2Cyclopropane] are greater than 7.00 and greater than 7.00.
On to `C=CC1C[C@]1(NC(=O)[C@@H]1C[C@@H](OC(=O)Nc2ccccc2-c2nnc[nH]2)CN1C(=O)[C@@H](NC(=O)OC(C)(C)C)C(C)(C)C)C(=O)NS(=O)(=O)C1CC1` (stereo partly drawn) [Compound 88, BocNH-P3(t-BuGly)-P2(Hyp(O—CO(NH—(2-(4H-[1,2,4]Triazol-3-yl)-phenyl))))-P1(1R,2S VinylAcca)—CONHSO2Cyclopropane], for which, in assay [1], the pIC50 is greater than 7.00. The pEC50 in assay [2] was less than 5.00.
With `C=CC1C[C@]1(NC(=O)[C@@H]1C[C@@H](OC(=O)Nc2ccccc2-n2cccn2)CN1C(=O)[C@@H](NC(=O)OC(C)(C)C)C(C)(C)C)C(=O)NS(=O)(=O)C1CC1` (stereo partly drawn) [Compound 89, BocNH-P3(t-BuGly)-P2(Hyp(O—CO(NH—(2-Pyrazol-1-yl-phenyl))))-P1(1R,2S VinylAcca)—CONHSO2Cyclopropane], in assay [1], the pIC50 was greater than 7.00. Besides, the pEC50 in assay [2] is 6.00 to 7.00.
On the same counts, the results for `C=CC1C[C@]1(NC(=O)[C@@H]1C[C@@H](OC(=O)Nc2ccccc2N2CCCCC2)CN1C(=O)[C@@H](NC(=O)OC(C)(C)C)C(C)(C)C)C(=O)NS(=O)(=O)C1CC1` (stereo partly drawn) [Compound 90, BocNH-P3(t-BuGly)-P2(Hyp(O—CO(NH—(2-Piperidin-1-yl-phenyl))))-P1(1R,2S VinylAcca)—CONHSO2Cyclopropane] are greater than 7.00 and greater than 7.00.
